Measured values as given in patent US6645991B1, “αvβ3 integrin inhibitors” (Merck Patent GmbH, priority 1999, dated 2003).

Target: receptor αvβ3 (Homo sapiens, UniProt P05106+P06756)
Assay: vitronectin binding test (method of Smith et al.)
Excerpt: For the vitronectin binding test, the IC50 value is given, i.e. the concentration in nmol/litre which inhibits 50% of the vitronectin binding to the corresponding isolated receptor (method of Smith et al., J. Biol. Chem. 265, 12267-71, 1990).

Sequence of receptor αvβ3 (P06756 31-889 limits assumed): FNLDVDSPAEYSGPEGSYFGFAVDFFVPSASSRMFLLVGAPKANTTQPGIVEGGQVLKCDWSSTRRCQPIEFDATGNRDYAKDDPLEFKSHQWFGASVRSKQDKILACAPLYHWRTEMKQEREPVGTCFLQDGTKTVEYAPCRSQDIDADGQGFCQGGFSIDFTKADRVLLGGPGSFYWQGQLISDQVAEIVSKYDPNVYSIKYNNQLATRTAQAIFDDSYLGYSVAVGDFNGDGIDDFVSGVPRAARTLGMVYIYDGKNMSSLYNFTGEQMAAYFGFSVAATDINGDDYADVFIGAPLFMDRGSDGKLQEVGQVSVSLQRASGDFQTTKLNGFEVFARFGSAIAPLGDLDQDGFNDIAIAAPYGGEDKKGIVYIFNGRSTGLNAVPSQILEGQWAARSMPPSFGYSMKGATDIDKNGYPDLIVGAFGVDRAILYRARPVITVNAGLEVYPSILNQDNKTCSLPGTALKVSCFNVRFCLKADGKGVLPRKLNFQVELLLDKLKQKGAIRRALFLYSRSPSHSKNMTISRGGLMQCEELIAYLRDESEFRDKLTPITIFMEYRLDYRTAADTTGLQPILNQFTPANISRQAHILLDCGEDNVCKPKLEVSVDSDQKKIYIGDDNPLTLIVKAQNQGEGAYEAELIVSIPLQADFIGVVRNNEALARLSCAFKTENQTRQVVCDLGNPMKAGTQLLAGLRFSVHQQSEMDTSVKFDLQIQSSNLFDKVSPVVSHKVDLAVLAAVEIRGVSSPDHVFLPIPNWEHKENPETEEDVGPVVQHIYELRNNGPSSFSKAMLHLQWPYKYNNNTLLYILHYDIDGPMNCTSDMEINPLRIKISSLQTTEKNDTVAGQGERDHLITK
Sequence of receptor αvβ3 (P06756 891-1048 limits assumed): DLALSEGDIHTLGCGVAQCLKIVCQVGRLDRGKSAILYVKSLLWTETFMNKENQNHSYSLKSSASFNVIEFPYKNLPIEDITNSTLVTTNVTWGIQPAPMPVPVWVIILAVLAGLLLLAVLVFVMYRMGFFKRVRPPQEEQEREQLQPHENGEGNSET
Sequence of receptor αvβ3 (P05106 27-788): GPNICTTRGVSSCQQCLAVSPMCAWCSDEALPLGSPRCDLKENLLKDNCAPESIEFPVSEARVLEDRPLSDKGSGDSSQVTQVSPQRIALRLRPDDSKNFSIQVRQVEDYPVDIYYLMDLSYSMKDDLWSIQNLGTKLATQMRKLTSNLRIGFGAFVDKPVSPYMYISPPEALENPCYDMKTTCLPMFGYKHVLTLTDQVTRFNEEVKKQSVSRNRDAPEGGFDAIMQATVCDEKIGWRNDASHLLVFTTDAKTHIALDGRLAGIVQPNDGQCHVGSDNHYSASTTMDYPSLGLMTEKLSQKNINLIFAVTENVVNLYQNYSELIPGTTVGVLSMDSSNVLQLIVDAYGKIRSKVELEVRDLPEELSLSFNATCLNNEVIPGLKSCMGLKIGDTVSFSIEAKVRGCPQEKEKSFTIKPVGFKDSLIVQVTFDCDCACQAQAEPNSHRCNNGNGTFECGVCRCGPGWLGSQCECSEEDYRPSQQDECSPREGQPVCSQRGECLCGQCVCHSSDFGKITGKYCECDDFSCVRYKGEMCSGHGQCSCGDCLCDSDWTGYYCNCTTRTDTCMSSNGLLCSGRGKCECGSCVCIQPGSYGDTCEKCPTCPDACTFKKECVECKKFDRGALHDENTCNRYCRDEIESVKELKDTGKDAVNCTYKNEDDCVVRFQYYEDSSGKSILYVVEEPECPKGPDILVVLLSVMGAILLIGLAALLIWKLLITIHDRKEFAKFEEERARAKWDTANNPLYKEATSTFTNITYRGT

With `O=C(O)CC(Cc1ccc(OCCCNc2ccccn2)cc1)c1ccccc1` (centres unmarked) [3-phenyl-4-{4-[3-(pyridin-2-ylamino)propoxy]phenyl}butyric acid] the IC50 (concentration which inhibits 50% of the vitronectin binding to the isolated receptor) was 5.3 nM and the “Inhibition of vitronectin binding to the receptor αvβ3” value (qualitative statement) was “demonstrated experimentally”.
